{"source": "patent US4760023A", "about": "“[21-leucine] human urogastrone, corresponding gene, corresponding recombinant plasmid, transformed cell and process for production thereof” (Wakunaga Seiyaku Kabushiki Kaisha, priority 1983, dated 1988)", "key": {"mouse 3T3 cells [1]": {"system": "mouse 3T3 cells", "test": "Bioassay of activity promoting proliferation of mouse 3T3 cells (viable cell count)", "type": "cell-based", "details": "4 days, 0.5% FBS-DME, FIG. 3", "experimental": "The activity of promoting proliferation of cells was determined by the following procedure. More specifically, monolayer culturing of mouse 3T3 cells was carried out in a 25-cm^2 flask, and the cells were treated with calcium- and magnesium-free HBSS (CMF-HBSS) containing 0.02% of EDTA and 0.05% of trypsin to prepare cell suspensions. The cells were washed with CMF-HBSS and resuspended in DME medium containing 0.5% of fetal bovine serum (FBS), and the number of viable cells was counted. The cell suspension was diluted with 0.5% FBS-DME medium so that the cell number was 2×10^4 per ml. Then, 1 ml of the cell suspension was seeded per 35 mm dish and incubation was carried out overnight in a CO2 incubator. Peptide fractions containing different concentrations of [21-L] hUG and mEGF as a control were dissolved in 0.5% FBS-DME medium and the mixtures were filtered by a Millipore filter (type GV, wpo 2500), and 1 ml aliquots of the mixtures were added to the above cell suspension. Incubation was carried out for 4 days in a CO2 incubator (5% CO2 -95% air, 37° C.). Viable cells were stained with Trypan Blue, and the number of the viable cells was counted using a counting chamber. […]"}, "mouse 3T3 cells [2]": {"system": "mouse 3T3 cells", "test": "Bioassay of activity stimulating thymidine incorporation", "type": "cell-based", "details": "for 3H-Thymidine In-take Amount cpm: 18 hours; for 3H-Thymidine In-take Amount Δcpm: minus no addition", "experimental": "Incorporation of thymidine was determined according to a modification of the method of Aharon Aharonov et al [J.B.C., 253, 3970 (1978)] and the method of Jimenez de Asua et al [PNAS, 72, 2724 (1975)]. More specifically, 6×10^3 of mouse 3T3 cells were seeded in 0.5 ml of 5% FBS-DME medium in a multi-well dish, and culturing was done for 5 days to grow as monolayers to sub-confluency. The medium was removed, and the cells were washed with PBS, and 0.5 ml of 0.5% FBS-DME medium was added. Incubation was done overnight. Then, 0.5 ml of 0.5% FBS-DME medium containing [21-L] hUG at a predetermined concentration or mEGF was added, and incubation was further continued for 18 hours. Then, 200 nci of [^3 H]-thymidine was added, and incubation was carried out at 55° C. for 30 minutes. The cells were washed twice with cold HBSS containing 20 mM Hepes (pH 7.4) and washed twice with 5% TCA. Then, 200 μl of 1N NaOH was added, and incubation was carried out at 55° C. for 30 minutes to dissolve DNA. Then, 50 μl of the DNA solution was taken and 25 μl of 2N HCl was added for neutralization. The radio-activity of Thymidine was measured by means of a liquid scintillation counter."}, "[3]": {"system": "ulcer caused by ligation of the pylorus", "test": "Inhibitory effect on generation of stomach ulcer (pylorus ligation)", "type": "in vivo, rats of the Wister strain", "details": "rat", "experimental": "The inhibitory effect of [21-L] hUG on generation of ulcer was examined on the basis of the activity of EGF of anti-gastric acid secretion [Gut, 16, 887 (1975)].\n7-weeks-old male rats of the Wister strain were bred and caused to fast for 24 hours before ligation of the pylorus. The pylorus was ligated for 17 hours, and ulcer was caused by fasting and abstinence from drinking. The peptide fraction containing [21-L] hUG (corresponding to 500 μg of the protein) or physiological saline as a control was hypodermically injected 30 minutes before ligation of the pylorus. Each group tested consisted of 5 rats, and the anti-ulcer action was evaluated by calculating the ulcer index. More specifically, the long and short diameters of the olcerous erosion generated by ligation of the pylorus were measured under an anatomical microscope, and the sum of products of the long and short diameters per rat was defined as the ulcer coefficient."}, "KB cell EGF receptor": {"molecular_target": "T1, KB cell EGF receptor (Homo sapiens, UniProt P00533)", "T1 construct": "endogenous in cells; host or cells: KB cells (ATCC No. CCL17), intact cells in suspension", "test": "Radioreceptor assay (RRA) using KB cells, competition with 125I-mEGF", "type": "binding", "details": "FIG. 2", "experimental": "RRA of [21-L] hUG was carried out using KB cells (ATCC No. CCL17) derived from a human nasopharyngeal epidermoid carcinoma in the light of the process of A. King et al [see J.B.C., 257, 3053 (1982)]. More specifically, monolayer culturing was carried out in DME medium in a 800-ml flask. The culture medium was removed, and cells were peeled with a phosphate buffer salt solution (PBS) containing 0.05% of EDTA to prepare a cell suspension. Then, the cells were washed 2 times with Hank's balanced salt solution (HBSS) containing 20 mM Hepes (pH 7.4). Then, the cells were suspended in a binding solution (DME medium, 20 mM Hepes, pH 7.4, 0.35 g/l of NaHCO3 and 100 μg/ml of Streptomycin), and the cell number was calculated and the cell density was adjusted to from 300,000 to 400,000 per 0.2 ml of the binding solution. The suspension was poured into tubes (0.2 ml in each tube), and 0.2 ml each of sample containing [21-L] hUG and ^125 I-mEGF (mouse EGF) at various concentrations were added into the tubes, respectively. Incubation was carried out at 37° C. for 1 hour. The cells were washed 3 times with ice-cold HBSS and suspended in 10% TCA, and the cells were separated from the solution by filtration through a glass filter. TCA was removed with acetone, and counting of radioactivity associated with the cells was performed by using a scintillation counter. […]"}, "mouse 3T3 cell": {"molecular_target": "T2, mouse 3T3 cell (Mus musculus, UniProt Q01279)", "T2 construct": "endogenous in cells; host or cells: mouse 3T3 cells", "test": "RRA using mouse 3T3 cell", "type": "binding", "experimental": "RPA using mouse 3T3 cell was carried out according to the process of C."}}}
{"substance": "[21-leucine] human urogastrone (NSDSECPLSHDGYCLHDGVCLYIEALDKYACNCVVGYIGERCQYRDLKWWELR; Epidermal growth factor; UniProt P01133 971-1023, looked up, variant M21L) [[21-L] hUG, 53-residue polypeptide, same as hUG except that the 21st amino acid is Leu; produced in E. coli, released by cyanogen bromide]", "values": [{"measurement": "dose-response curve of cell proliferation compared with mEGF", "setting": "mouse 3T3 cells [1]", "value": "in good agreement with the curve for mEGF"}, {"measurement": "3H-Thymidine In-take Amount cpm", "setting": "mouse 3T3 cells [2]; 0.73 μg/ml", "value": "17,170.8 cpm"}, {"measurement": "3H-Thymidine In-take Amount Δcpm", "setting": "mouse 3T3 cells [2]; 0.73 μg/ml", "value": "12,531.3 cpm"}, {"measurement": "3H-Thymidine In-take Amount cpm", "setting": "mouse 3T3 cells [2]; 1.46 μg/ml", "value": "11,761.7 cpm"}, {"measurement": "3H-Thymidine In-take Amount Δcpm", "setting": "mouse 3T3 cells [2]; 1.46 μg/ml", "value": "7,122.2 cpm"}, {"measurement": "3H-Thymidine In-take Amount cpm", "setting": "mouse 3T3 cells [2]; 2.93 μg/ml", "value": "13,567.0 cpm"}, {"measurement": "3H-Thymidine In-take Amount Δcpm", "setting": "mouse 3T3 cells [2]; 2.93 μg/ml", "value": "8,927.5 cpm"}, {"measurement": "thymidine incorporation (in words)", "setting": "mouse 3T3 cells [2]; mouse 3T3 cells", "value": "promotes greatly thymidine incorporation"}, {"measurement": "Ulcer Coefficient", "setting": "[3]; 500 μg of the protein hypodermically 30 minutes before ligation, pylorus ligated 17 hours", "value": "44.5 ± 18.0", "unit": "mm^2"}, {"measurement": "generation of the ulcer (in words)", "setting": "[3]; pylorus ligation", "value": "tends to inhibit generation of the ulcer"}, {"measurement": "inhibition of binding of 125I-mEGF to the KB cell EGF receptor", "setting": "KB cell EGF receptor; 37° C., 1 hour", "value": "competitively inhibits binding"}, {"measurement": "dosage-response curve in RRA compared with mEGF", "setting": "KB cell EGF receptor", "value": "in good agreement with that of mEGF"}, {"measurement": "RRA result using mouse 3T3 cell", "setting": "mouse 3T3 cell", "value": "results similar to the results obtained in RRA using KB cell"}]}
{"substance": "mouse epidermal growth factor (NSYPGCPSSYDGYCLNGGVCMHIESLDSYTCNCVIGYSGDRCQTRDLRWWELR; not fully specified; Epidermal growth factor; UniProt P01132 977-1029, looked up) [mEGF, mEGF (Toyobo, Japan), used for comparison]", "values": [{"measurement": "3H-Thymidine In-take Amount cpm", "setting": "mouse 3T3 cells [2]; 1 ng/ml", "value": "14,510.5 cpm"}, {"measurement": "3H-Thymidine In-take Amount Δcpm", "setting": "mouse 3T3 cells [2]; 1 ng/ml", "value": "9,871.0 cpm"}, {"measurement": "3H-Thymidine In-take Amount cpm", "setting": "mouse 3T3 cells [2]; 2 ng/ml", "value": "13,387.4 cpm"}, {"measurement": "3H-Thymidine In-take Amount Δcpm", "setting": "mouse 3T3 cells [2]; 2 ng/ml", "value": "8,747.9 cpm"}, {"measurement": "3H-Thymidine In-take Amount cpm", "setting": "mouse 3T3 cells [2]; 5 ng/ml", "value": "14,695.2 cpm"}, {"measurement": "3H-Thymidine In-take Amount Δcpm", "setting": "mouse 3T3 cells [2]; 5 ng/ml", "value": "10,055.7 cpm"}, {"measurement": "3H-Thymidine In-take Amount cpm", "setting": "mouse 3T3 cells [2]; 10 ng/ml", "value": "14,094.6 cpm"}, {"measurement": "3H-Thymidine In-take Amount Δcpm", "setting": "mouse 3T3 cells [2]; 10 ng/ml", "value": "9,455.1 cpm"}]}
